The source of these data is PubChem BioAssay AID743417 (Broad Institute, 2014).

Results filed as inconclusive are left out.

In this test the test system is Clone20 osteoblast Shn3 3'UTR firefly luciferase, 24 h. Nature of the test: Schnurri-3 3'UTR-luciferase signal suppressors – cell-based, Clone20 osteoblasts, luminescence, dry powder, set 2, dose response (AID 743417).
In the case of `S=C(NCCCCN(Cc1ccc(Cl)cc1)c1ccc(Br)cn1)NCCCc1cnc[nH]1`, the AC50 is 7.24 µM. As for `Cc1[nH]nc2c1-c1nc3ccccc3nc1C(C)(C)C2`, the figure is 4.2 µM; as for `Cn1c(/C=C/c2ccc([N+](=O)[O-])o2)nc2ccccc2c1=O`, 2.37 µM. The figure for `Cc1cc(C)n2nc(SCc3cccc(S(=O)(=O)N(C)C)c3)nc2n1` is 14 µM; for `COc1ccccc1NC(=O)Cc1nn(C)c(=O)c2ccccc12` it is 1.97 µM; for `CC(C)c1ccc(NC(=O)Nc2nc(C(N)C3CCCCC3)cs2)cc1` (stereo not drawn) it is 7.29 µM. As to `CN(c1cccc(Cl)c1)S(=O)(=O)c1cccc(C(=O)NCc2ccncc2)c1`, the AC50 was below 0.26 µM.

With `CC(C)(C)C(=O)/C(=C/c1ccc(Cl)cc1)n1cncn1`, the AC50 was 3.75 µM. As for `CC(C)Cn1c(N)c(C(=O)COC(=O)C2Cc3ccccc3CN2S(C)(=O)=O)c(=O)n(C)c1=O` (stereo not drawn), the figure is 0.72 µM; as for `COC1CC2C=C(C)C=CC=CC(=O)NC(c3ccccc3)CC=CCCC(O)CC(=O)C2=C1O` (stereo not drawn), 0.629 µM; as for `Clc1ccc(-c2cc(-c3nnc4n3CCCCC4)c3ccccc3n2)cc1`, 5.59 µM. The figure for `O=C1CC(Sc2nnnn2-c2ccccc2)C(=O)N1c1cccc(Cl)c1` (stereo not drawn) is 8.53 µM; for `Cc1ccc([C@@H]2CC(=O)[C@@H]3CN(S(=O)(=O)c4ccccc4C)[C@H](c4ccc(Cl)cc4)C[C@@H]3N2S(=O)(=O)c2ccc(C)cc2)cc1` it is 0.361 µM; for `CCC(C)(O)C(=O)OC1C(=O)OC2CC3C(C)=CC(=O)C(O)C3(C)C3C4(O)OCC23C1C(C)C4O` (stereo not drawn) it is 0.866 µM. As for `Cc1cccc(-n2ncc(Cl)c(Cl)c2=O)c1`, the figure is 5.8 µM. Turning to `COc1ccc(C(=O)NC2CCCc3c2cnn3-c2cccc(C)c2C)c(OC)n1` (stereo not drawn), the AC50 was 1.96 µM. The figure for `COc1cc(OC)c(OC)cc1CCC(C)NCCC(c1ccccc1)c1ccccc1` (stereo not drawn) is 3.99 µM. In the case of `Cc1ccc2nc(NC(=O)C3CCN(S(=O)(=O)c4ccc5c(c4)oc(=O)n5C)CC3)sc2c1`, the concentration at half-maximal activity (AC50) is 3.35 µM. As for `Cc1cc(C(=O)CSc2nc(N)cc(=O)[nH]2)c(C)n1-c1cccc(F)c1`, the figure is 1.66 µM.

`c1ccc(CNc2c(-c3cccc(SC4CCCCC4)c3)nc3ccccn23)cc1`: the AC50 was 3.46 µM. As for `COc1ccc2c(c1OC)C(=O)OC2Nc1nc(-c2ccccc2)cs1` (stereo not drawn), the figure is 4.7 µM; as for `CC(C)(C)C(=O)NC(=S)NNC(=O)c1sc2ccccc2c1Cl`, 19.1 µM. As for `Cc1cc(S(=O)(=O)c2ccc([N+](=O)[O-])cn2)ccc1Br`, the figure is 3.69 µM. As for `COc1cc(NC(=O)NCc2ccco2)ccc1-c1ccc(NC(=O)NCc2ccco2)cc1OC`, the figure is 3.19 µM; as for `CCOC(=O)c1c2c(n(-c3ccc(OC)cc3)c1C)C(=O)C(=O)c1ccccc1-2`, 3.15 µM; as for `CCOc1cc(C(=O)CSc2nnc(CNc3ccc(Cl)cc3)o2)ccc1NC(=O)CC`, 7.73 µM. As to `Cc1ccc(C(=O)NC2CCCc3c2cnn3-c2ccc(F)cc2F)cn1` (stereo not drawn), the AC50 is 0.921 µM.

For the compound `C=CCC[C@H](Cc1ccc(F)cc1)C(=O)OC[C@@H](Cc1c[nH]c2ccccc12)NC(=O)[C@H](CC=C)CC(=O)N(CCO)Cc1ccccc1`, the AC50 was 8.66 µM. As for `CCC(=O)OCCNc1cc(Sc2nccn2C)c2nonc2c1[N+](=O)[O-]`, the figure is 1.55 µM.

Turning to `N=c1n(Cc2ccccc2)c2ccccc2n1CC(O)COc1ccc(Cl)cc1Cl` (stereo not drawn), the AC50 was 2.89 µM. The figure for `O=C(CSc1nc(-c2ccco2)cc(C(F)(F)F)n1)Nc1ccc(C(=O)N2CCCCC2)cc1` is 2.87 µM; for `O=C(/C=C/c1ccc(O)c(O)c1)OCCc1ccccc1` it is 0.877 µM. As for `COc1ccc(-c2ccc(Nc3ccc(S(=O)(=O)N4CCCC4)cc3)nn2)cc1OC`, the figure is 20.1 µM; as for `Oc1ccccc1Nc1nc(NCc2ccccc2)c2ccccc2n1`, 10.7 µM. The figure for `O=c1c2ccccc2nc2n1C(CSCc1cccc(C(F)(F)F)c1)CS2` (stereo not drawn) is 1.68 µM; for `Cc1ccc(C)c(N2CCN(C(=O)CCCCCn3c(=S)[nH]c4ccc(N5CCOCC5)cc4c3=O)CC2)c1` it is 1.99 µM. With `CCCCCCCSc1cc(OC)c(CCNC)cc1OC`, the AC50 is 10.6 µM. As for `O=S(=O)(Nc1cc(Sc2ncn[nH]2)c(O)c2ccccc12)c1ccccc1`, the figure is 7.55 µM; as for `Cc1ccc(-n2c(Cl)c(Cl)nc(Cl)c2=O)cc1`, 1.77 µM; as for `CC(C)c1ccc(/C=C(\c2nc3ccccc3[nH]2)S(=O)(=O)c2ccccc2)cc1`, 4.01 µM. As for `CC1=C(C(=O)OC2CCCCC2)C(c2cccnc2)n2nnnc2N1` (stereo not drawn), the figure is 3.23 µM. With `COCC1CCCCN1C(=O)c1cc(COc2ccc3ncccc3c2)on1` (stereo not drawn), the AC50 is 0.33 µM.

On to `CN(C(=O)COc1ccccc1C(=O)NCCOc1ccccc1)c1ccccc1`, for which the AC50 was 1.57 µM. The figure for `C=C1C(=O)OC2CC3(C)OC3C3OC3C3=CC(OC3=O)C12` (stereo not drawn) is 1.45 µM; for `CCCCn1c(CN2CCN(c3ccc(F)cc3)CC2)nc2c1c(=O)n(C)c(=O)n2C` it is 2.73 µM; for `Cn1c(=O)c2c(nc(NCc3ccco3)n2CCc2ccccc2)n(C)c1=O` it is 2.34 µM.

Regarding `Cc1ccc(F)cc1CNC(=O)c1cc(COc2ccc3ncccc3c2)on1`, the AC50 was 4.88 µM. As for `O=C(c1ccc(F)cc1)C(CN1CCOCC1)c1ccccc1` (stereo not drawn), the figure is 17.6 µM; as for `CCCCC1(Cc2ccc([N+](=O)[O-])cc2)C(=O)N(c2ccccc2)N(c2ccccc2)C1=O`, 10.2 µM; as for `Oc1ccc(CCNc2ncnc3ccc(Cl)cc23)cc1`, 0.551 µM.

For `C=CCn1nc([N+](=O)[O-])nc1Sc1cccc2cccnc12`, the AC50 is 10.7 µM. The figure for `Clc1ccc(C[n+]2cc(-c3ccccc3)n3c2CCCCC3)c(Cl)c1` is 1.2 µM; for `CCCCNc1nc2c(c(=O)n(C)c(=O)n2C)n1Cc1cccc(OC)c1` it is 0.284 µM. As for `Cc1cc(C)nc(SCC(=O)Nc2ccc(N3CCOCC3)c(Cl)c2)n1`, the AC50 was 1.66 µM. For `COc1ccc(CNc2ncnc3ccccc23)cc1`, the concentration at half-maximal activity (AC50) was 0.674 µM. As for `O=C(Nc1ccc([N+](=O)[O-])cc1)Nc1nc(-c2ccc(Cl)s2)cs1`, the figure is 3.19 µM; as for `CCOc1ccccc1NC(=O)c1nc(S(=O)(=O)Cc2ccccc2)ncc1Cl`, 0.376 µM; as for `COc1ccc(CC2NCC(O)C2OC(C)=O)cc1` (stereo not drawn), below 0.26 µM.

Turning to `C=C1C(=O)OC2CC1C(OC(C)=O)CC(C)=CCCC(C)=CCCC2(C)O` (stereo not drawn), the AC50 is 0.91 µM.

Turning to `Cc1ccc(C(=O)Nc2cnc3ccccc3c2)cc1`, the AC50 was 4.04 µM. The figure for `O=C1CCCN2N=C(SCC(=O)Nc3cccc(C(F)(F)F)c3)SC2=N1` is 4.37 µM; for `CC(=O)Nc1ccc(Sc2ccc([N+](=O)[O-])o2)cc1` it is 2.15 µM; for `CCN(CC)c1ccc2c(c1)oc(=O)c1c(Cl)cc(=O)oc12` it is 2.22 µM. As for `CCOc1cc(/C=C2/C(=O)ON=C2C)ccc1OCc1ccccc1F`, the figure is 6.95 µM; as for `NC(Cc1ccc(Cl)cc1)c1csc(NC(=O)NCC2CCCCC2)n1` (stereo not drawn), 6.58 µM. As for `CCOC(=O)CS(=O)(=O)c1nc(-c2ccccc2)cc(C(F)(F)F)n1`, the figure is 3.42 µM; as for `CN(c1ccccc1)c1ccc(/C=C/[N+](=O)[O-])cc1`, 5.79 µM. As to `CC(C)(C)NC(=O)CSc1nc2ccc(NC(=O)CSc3nnnn3Cc3ccccc3)cc2s1`, the AC50 was 3.26 µM.
